Measured values: US20250002487A1, “HETEROCYCLIC COMPOUNDS AND USES THEREOF” (Ventus Therapeutics U.S., Inc., priority 2021, published 2025)

Molecular target: human-cGAS (h-cGAS) (Homo sapiens, UniProt Q8N884)
Test: hcGAS Kinase-Glo Assay
Format: biochemical
Details: 40 nM h-cGAS, 100 μM ATP, 100 μM GTP, 25 nM dsDNA, 3 h incubation, read-out: hcGAS potency IC50
How it was run: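 IC50 values come from a luminescence-based Kinase-Glo measurement on human cGAS. Conditions follow the Lama et al. 2019 method with minor modifications.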

Chain of human-cGAS (h-cGAS) (Q8N884 whole entry): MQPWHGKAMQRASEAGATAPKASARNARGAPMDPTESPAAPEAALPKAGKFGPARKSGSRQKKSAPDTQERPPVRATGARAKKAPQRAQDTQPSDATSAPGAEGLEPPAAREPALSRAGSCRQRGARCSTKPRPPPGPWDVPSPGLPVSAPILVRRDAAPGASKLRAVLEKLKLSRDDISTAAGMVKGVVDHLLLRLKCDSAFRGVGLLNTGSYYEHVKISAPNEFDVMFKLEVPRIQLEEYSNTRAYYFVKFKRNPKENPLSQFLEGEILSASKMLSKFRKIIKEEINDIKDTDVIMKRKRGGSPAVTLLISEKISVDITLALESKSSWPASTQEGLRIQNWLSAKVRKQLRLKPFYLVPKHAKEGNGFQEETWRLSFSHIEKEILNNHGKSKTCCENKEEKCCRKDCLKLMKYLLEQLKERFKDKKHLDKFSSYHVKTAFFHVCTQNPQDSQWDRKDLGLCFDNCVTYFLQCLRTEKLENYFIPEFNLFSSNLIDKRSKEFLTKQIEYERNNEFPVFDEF

Structure (SMILES)	IC50 [nM]
CSc1nnc(NC(=O)c2nnc(N3CCCC(C)(C)C3)o2)s1 [Compound 119, 5-(3,3-dimethylpiperidin-1-yl)-N-(5-(methylthio)-1,3,4-thiadiazol-2-yl)-1,3,4-oxadiazole-2-carboxamide]	500 to 1000
CSc1nnc(NC(=O)c2nnc(N3CCC(C)(C)CC3)o2)s1 [Compound 120, 5-(4,4-dimethylpiperidin-1-yl)-N-(5-(methylthio)-1,3,4-thiadiazol-2-yl)-1,3,4-oxadiazole-2-carboxamide]	500 to 1000
CSc1nnc(NC(=O)c2nnc(N3CCCC3c3ccccc3)o2)s1 (stereo not drawn) [Compound 123, N-(5-(methylthio)-1,3,4-thiadiazol-2-yl)-5-(2-phenylpyrrolidin-1-yl)-1.3,4-oxadiazole-2-carboxamide]	100 to 500
CSc1nnc(NC(=O)c2nnc(N3CCNC(=O)C3)o2)s1 [Compound 124, N-(5-(methylthio)-1,3,4-thiadiazol-2-yl)-5-(3-oxopiperazin-1-yl)-1,3,4-oxadiazole-2-carboxamide]	≥ 1000
CSc1nnc(NC(=O)c2nnc(N3CCC[C@@H]3c3ccccc3)o2)s1 [Compound 125, (R)-N-(5-(methylthio)-1,3,4-thiadiazol-2-yl)-5-(2-phenylpyrrolidin-1-yl)-1,3,4-oxadiazole-2-carboxamide]	100 to 500
CSc1nnc(NC(=O)c2nnc(N3CCC[C@H]3c3ccccc3)o2)s1 [Compound 126, (S)-N-(5-(methylthio)-1,3,4-thiadiazol-2-yl)-5-(2-phenylpyrrolidin-1-yl)-1,3,4-oxadiazole-2-carboxamide]	500 to 1000
O=C(Nc1nnc(-c2cscn2)s1)c1onc2ccccc12 [Compound 127, N-(5-(thiazol-4-yl)-1,3,4-thiadiazol-2-yl)benzo[c]isoxazole-3-carboxamide]	500 to 1000
O=C(Nc1nnc(-c2cncs2)s1)c1onc2ccccc12 [Compound 128, N-(5-(thiazol-5-yl)-1,3,4-thiadiazol-2-yl)benzo[c]isoxazole-3-carboxamide]	≥ 1000
O=C(Nc1nnc(-c2c[nH]cn2)s1)c1onc2ccccc12 [Compound 129, N-[5-(1H-imidazol-4-yl)-1,3,4-thiadiazol-2-yl]-2,1-benzoxazole-3-carboxamide]	≥ 1000
O=C(Nc1nnc(-c2cnccn2)s1)c1onc2ccccc12 [Compound 130, N-[5(pyrazin-2-yl)-1,3,4-thiadiazol-2-yl]-2,1-benzoxazole-3-carboxamide]	500 to 1000
O=C(Nc1nnc(-c2nccs2)s1)c1onc2ccccc12 [Compound 131, N-(5-(thiazol-2-yl)-1,3,4-thiadiazol-2-yl)benzo[c]isoxazole-3-carboxamide]	100 to 500
O=C(O)Cc1nnc(NC(=O)c2onc3ccccc23)s1 [Compound 132, [5-(2,1-benzoxazole-3-amido)-1,3,4-thiadiazol-2-yl]acetic acid]	≥ 1000
CSc1nnc(NC(=O)c2nnn(Cc3ccccn3)n2)s1 [Compound 133, N-[5-(methylthio)-1,3,4-thiadiazol-2-yl]-2-(pyridin-2-ylmethyl)-1,2,3,4-tetrazole-5-carboxamide]	≥ 1000
CSc1nnc(NC(=O)c2nnn(Cc3ccccc3)n2)s1 [Compound 134, 2-benzyl-N-(5-(methylthio)-1,3,4-thiadiazol-2-yl)-2H-tetrazole-5-carboxamide]	≥ 1000
CSc1nnc(NC(=O)c2nnn(Cc3cccnc3)n2)s1 [Compound 135, N-(5-(methylthio)-1,3,4-thiadiazol-2-yl)-2-(pyridin-3-ylmethyl)-2H-tetrazole-5-carboxamide]	≥ 1000
CSc1nnc(NC(=O)c2nnn(-c3ccccn3)n2)s1 [Compound 136, N-(5-(methylthio)-1,3,4-thiadiazol-2-yl)-2-(pyridin-2-yl)-2H-tetrazole-5-carboxamide]	500 to 1000
CSc1nnc(NC(=O)c2nnn(-c3cccnc3)n2)s1 [Compound 137, N-(5-(methylthio)-1,3,4-thiadiazol-2-yl)-2-(pyridin-3-yl)-2H-tetrazole-5-carboxamide]	≥ 1000
CSc1nnc(NC(=O)c2nnn(-c3ccccc3F)n2)s1 [Compound 138, 2-(2-fluorophenyl)-N-[5-(methylsulfanyl)-1,3,4-thiadiazol-2-yl]-1,2,3,4-tetrazole-5-carboxamide]	500 to 1000
CSc1nnc(NC(=O)c2cc(-c3ccsc3)no2)s1 [Compound 139, N-[5-(methylsulfanyl)-1,3,4-thiadiazol-2-yl]-3-(thiophen-3-yl)-1,2-oxazole-5-carboxamide]	500 to 1000
CSc1nnc(NC(=O)c2cc(-c3ccns3)no2)s1 [Compound 140, N-[5-(methylsulfanyl)-1,3,4-thiadiazol-2-yl]-3-(1,2-thiazol-5-yl)-1,2-oxazole-5-carboxamide]	≥ 1000
CSc1nnc(NC(=O)c2cc(-c3cncs3)no2)s1 [Compound 141, N-(5-(methylthio)-1,3,4-thiadiazol-2-yl)-3-(thiazol-5-yl)isoxazole-5-carboxamide]	≥ 1000

Structure (SMILES)	IC50 [nM]
CSc1nnc(NC(=O)c2cc(-c3nccs3)no2)s1 [Compound 142, N-(5-(methylthio)-1,3,4-thiadiazol-2-yl)-3-(thiazol-2-yl)isoxazole-5-carboxamide]	500 to 1000
O=C(Nc1nnc(-c2ccccc2C(F)(F)F)s1)c1onc2ccccc12 [Compound 143, N-(5-(2-(trifluoromethyl)phenyl)-1,3,4-thiadiazol-2-yl)benzo[c]iso-xazole-3-carboxamide]	100 to 500
O=C(Nc1nnc(-c2ccccc2Br)s1)c1onc2ccccc12 [Compound 144, N-[5-(2-bromophenyl)-1,3,4-thiadiazol-2-yl]-2,1-benzoxazole-3-carboxamide]	100 to 500
O=C(Nc1nnc(-c2cn[nH]c2)s1)c1onc2ccccc12 [Compound 145, N-(5-(1H-pyrazol-4-yl)-1,3,4-thiadiazol-2-yl)benzo[c]isoxazole-3-carboxamide]	≥ 1000
Cn1nccc1-c1nnc(NC(=O)c2onc3ccccc23)s1 [Compound 146, N-(5-(1-methyl-1H-pyrazol-5-yl)-1,3,4-thiadiazol-2-yl)benzo[c]isoxazole-3-carboxamide]	≥ 1000
O=C(Nc1nnc(-c2ccccc2C(F)F)s1)c1onc2ccccc12 [Compound 147, N-(5-(2-(difluoromethyl)phenyl)-1,3,4-thiadiazol-2-yl)benzo[c]isoxazole-3-carboxamide]	500 to 1000
O=C(Nc1nnc(-c2ncccn2)s1)c1onc2ccccc12 [Compound 148, N-(5-(pyrimidin-2-yl)-1,3,4-thiadiazol-2-yl)benzo[c]isoxazole-3-carboxamide]	≥ 1000
CSc1nnc(NC(=O)c2nnc(N3CCCCC3c3ccccc3)o2)s1 (stereo not drawn) [Compound 149, N-(5-(methylthio)-1,3,4-thiadiazol-2-yl)-5-(2-phenylpiperidin-1-yl)-1,3,4-oxadiazole-2-carboxamide]	500 to 1000
CSc1nnc(NC(=O)c2cc(-c3nccc4ccccc34)no2)s1 [Compound 150, 3-(Isoquinolin-1-yl)-N-(5-(methylthio)-1,3,4-thiadiazol-2-yl)isoxazole-5-carboxamide]	500 to 1000
CSc1nnc(NC(=O)c2cc(-c3cccc(F)c3F)no2)s1 [Compound 151, 3-(2,3-Difluorophenyl)-N-(5-(methylthio)-1,3,4-thiadiazol-2-yl)isoxazole-5-carboxamide]	500 to 1000
CSc1nnc(NC(=O)c2cc(-c3ncccn3)no2)s1 [Compound 152, N-(5-(Methylthio)-1,3,4-thiadiazol-2-yl)-3-(pyrimidin-2-yl)isoxazole-5-carboxamide]	100 to 500
CSc1nnc(NC(=O)c2cc(-c3ncc4ccccc4n3)no2)s1 [Compound 153, N-(5-(Methylthio)-1,3,4-thiadiazol-2-yl)-3-(quinazolin-2-yl)isoxazole-5-carboxamide]	100 to 500
O=C(Nc1nnc(-c2ccccc2Cl)s1)c1cc(-c2ncccn2)no1 [Compound 154, N-(5-(2-Chlorophenyl)-1,3,4-thiadiazol-2-yl)-3-(pyrimidin-2-yl)isoxazole-5-carboxamide]	100 to 500
O=C(Nc1nnc(-c2ccccc2Cl)s1)c1cc(-c2ncc3ccccc3n2)no1 [Compound 155, N-(5-(2-Chlorophenyl)-1,3,4-thiadiazol-2-yl)-3-(quinazolin-2-yl)isoxazole-5-carboxamide]	100 to 500
O=C(Nc1nnc(-c2ccccc2Cl)s1)c1cc(-c2ncc(F)cn2)no1 [Compound 156, N-(5-(2-Chlorophenyl)-1,3,4-thiadiazol-2-yl)-3-(5-fluoropyrimidin-2-yl)isoxazole-5-carboxamide]	100 to 500
Cc1ccnc(-c2cc(C(=O)Nc3nnc(-c4ccccc4Cl)s3)on2)n1 [Compound 157, N-(5-(2-Chlorophenyl)-1,3,4-thiadiazol-2-yl)-3-(4-methylpyrimidin-2-yl)isoxazole-5-carboxamide]	100 to 500
Cc1cnc(-c2cc(C(=O)Nc3nnc(-c4ccccc4Cl)s3)on2)nc1 [Compound 158, N-(5-(2-Chlorophenyl)-1,3,4-thiadiazol-2-yl)-3-(5-methylpyrimidin-2-yl)isoxazole-5-carboxamide]	100 to 500
CSc1nnc(NC(=O)c2onc3ccc(Cc4ccccc4)cc23)s1 [Compound 159, 5-Benzyl-N-(5-(methylthio)-1,3,4-thiadiazol-2-yl)benzo[c]isoxazole-3-carboxamide]	500 to 1000
COc1ccc(Cc2ccc3noc(C(=O)Nc4nnc(SC)s4)c3c2)cc1 [Compound 160, 5-(4-Methoxybenzyl)-N-(5-(methylthio)-1,3,4-thiadiazol-2-yl)benzo[c]isoxazole-3-carboxamide]	500 to 1000
COc1cccc(Cc2ccc3noc(C(=O)Nc4nnc(SC)s4)c3c2)c1 [Compound 161, 5-(3-methoxybenzyl)-N-(5-(methylthio)-1,3,4-thiadiazol-2-yl)benzo[c]isoxazole-3-carboxamide]	500 to 1000
CSc1nnc(NC(=O)c2onc3ccc(Nc4ccccc4)cc23)s1 [Compound 162, N-(5-(methylthio)-1,3,4-thiadiazol-2-yl)-5-(phenylamino)benzo[c]isoxazole-3-carboxamide]	500 to 1000
